Test results reported in patent publication EP0370499A2, “Use of benzomorphanes in cytoprotection” (BOEHRINGER INGELHEIM KG, priority 1988, dated 1990).

Test system: Hippocampusschnitt
Assay: Hippocampal slice: epileptic discharges in magnesium-free medium (stimulation of Schaffer collaterals, extracellular recording at CA1 pyramidal cells)
Format: cell-based
Settings: addition of 100 mmol, Abb. 1c
Excerpt: Als Testsystem für den Nachweis der zytoprotektiven Eigenschaften der Benzomorphanderivate dient der Hippocampusschnitt. Über Mikroelektroden werden die Schäfferkollaterale des sich in einer Perfusionskammer befindenden Hippocampusschnittes stimuliert und die auftretenden Summenpotentiale extrazellulär an den Pyramidenzellen der CAI-Region abgeleitet [H.L. Haas, B. Schaerer und M. Vosmansky, J. Neuroscience Meth. 1 (1979) 323].
Eine typische Stimulation in einem magnesiumhaltigem Medium ist in Abb. 1a dargestellt. - Abb. 1b zeigt multiple epileptische Entladungen in einem magnesiumfreien Medium. Diese Entladungen werden - wie Abb. 1c belegt - beispielsweise durch Zugabe von […] (-)-(1R,5R,9R)-N-(2-Furylmethyl)-5,9-dimethyl-2′- hydroxy-6,7-benzomorphan gehemmt.

Compound: C[C@H]1[C@H]2Cc3ccc(O)cc3[C@]1(C)CCN2Cc1ccco1 [(-)-(1R,5R,9R)-N-(2-Furylmethyl)-5,9-dimethyl-2′-hydroxy-6,7-benzomorphan]
- multiple epileptische Entladungen: gehemmt
